The numbers were not newly measured in paper PMC8344021, “Discovery of Small Molecule Bak Activator for Lung Cancer Therapy” (Theranostics, 2021), which cites them from elsewhere.

Data set [1] has as its system SCLC. Further details: method as in PMID 21282543, PMID 22496272. To be noted: single-agent, SCLC patients; ref [16], [17]; cited from earlier work.
Data set [2] has as its system chronic lymphocytic leukemia (CLL). Further details: method as in PMID 29562156, PMID 31205643. As to conditions: venetoclax monotherapy or venetoclax/rituximab combination; ref [11], [12]; cited from earlier work.

In the case of `CC1(C)CCC(c2ccc(Cl)cc2)=C(CN2CCN(c3ccc(C(=O)NS(=O)(=O)c4ccc(N[C@H](CCN5CCOCC5)CSc5ccccc5)c(S(=O)(=O)C(F)(F)F)c4)cc3)CC2)C1` [navitoclax], in data set [1], the clinical efficacy entry is reported as “limited efficacy”.

In the case of `CC1(C)CCC(CN2CCN(c3ccc(C(=O)NS(=O)(=O)c4ccc(NCC5CCOCC5)c([N+](=O)[O-])c4)c(Oc4cnc5[nH]ccc5c4)c3)CC2)=C(c2ccc(Cl)cc2)C1` [venetoclax], the “proportion of patients who develop venetoclax failure” value in data set [2] is listed as 15-25%.
